Numbers after ± are expanded uncertainties.
Test: mn = molality of the nth substance listed, in mol/kg
Details: 101.3 kPa, Liquid, Vibrating tube method

C1CCOC1 [tetrahydrofuran] + O
mass density [kg/m3]
Details | 278.15 K | 283.15 K | 288.15 K | 293.15 K | 298.15 K | 303.15 K | 308.15 K | 313.15 K | 318.15 K
m1 = 0.06882 | 999.729 ± 0.11 | 999.439 ± 0.11 | 998.826 ± 0.11 | 997.918 ± 0.11 | 996.743 ± 0.11 | 995.331 ± 0.11 | 993.701 ± 0.11 | 991.864 ± 0.11 | 989.851 ± 0.11
m1 = 0.1028 | 999.619 ± 0.11 | 999.317 ± 0.11 | 998.697 ± 0.11 | 997.78 ± 0.11 | 996.596 ± 0.11 | 995.178 ± 0.11 | 993.538 ± 0.11 | 991.694 ± 0.11 | 989.672 ± 0.11
m1 = 0.2158 | 999.282 ± 0.11 | 998.938 ± 0.11 | 998.289 ± 0.11 | 997.343 ± 0.11 | 996.13 ± 0.11 | 994.687 ± 0.11 | 993.021 ± 0.11 | 991.146 ± 0.11 | 989.097 ± 0.11
m1 = 0.3098 | 999.036 ± 0.11 | 998.655 ± 0.11 | 997.977 ± 0.11 | 997.003 ± 0.11 | 995.764 ± 0.11 | 994.293 ± 0.11 | 992.601 ± 0.11 | 990.703 ± 0.11 | 988.631 ± 0.11
m1 = 0.4199 | 998.781 ± 0.11 | 998.36 ± 0.11 | 997.637 ± 0.11 | 996.629 ± 0.11 | 995.359 ± 0.11 | 993.859 ± 0.11 | 992.137 ± 0.11 | 990.208 ± 0.11 | 988.102 ± 0.11
m1 = 0.5704 | 998.489 ± 0.11 | 997.999 ± 0.11 | 997.225 ± 0.11 | 996.162 ± 0.11 | 994.84 ± 0.11 | 993.293 ± 0.11 | 991.526 ± 0.11 | 989.552 ± 0.11 | 987.402 ± 0.11
m1 = 0.7194 | 998.255 ± 0.11 | 997.698 ± 0.11 | 996.863 ± 0.11 | 995.741 ± 0.11 | 994.361 ± 0.11 | 992.771 ± 0.11 | 990.96 ± 0.11 | 988.935 ± 0.11 | 986.735 ± 0.11
m1 = 0.8767 | 998.059 ± 0.11 | 997.427 ± 0.11 | 996.519 ± 0.11 | 995.333 ± 0.11 | 993.894 ± 0.11 | 992.247 ± 0.11 | 990.382 ± 0.11 | 988.304 ± 0.11 | 986.049 ± 0.11
m1 = 1.04 | 997.903 ± 0.11 | 997.18 ± 0.11 | 996.19 ± 0.11 | 994.935 ± 0.11 | 993.435 ± 0.11 | 991.725 ± 0.11 | 989.802 ± 0.11 | 987.671 ± 0.11 | 985.363 ± 0.11
m1 = 1.174 | 997.793 ± 0.11 | 997.013 ± 0.11 | 995.964 ± 0.11 | 994.643 ± 0.11 | 993.087 ± 0.11 | 991.324 ± 0.11 | 989.348 ± 0.11 | 987.162 ± 0.11 | 984.803 ± 0.11
m1 = 1.262 | 997.732 ± 0.11 | 996.903 ± 0.11 | 995.814 ± 0.11 | 994.456 ± 0.11 | 992.856 ± 0.11 | 991.065 ± 0.11 | 989.06 ± 0.11 | 986.838 ± 0.11 | 984.443 ± 0.11
m1 = 1.406 | 997.65 ± 0.11 | 996.744 ± 0.11 | 995.581 ± 0.11 | 994.16 ± 0.11 | 992.503 ± 0.11 | 990.648 ± 0.11 | 988.583 ± 0.11 | 986.311 ± 0.11 | 983.864 ± 0.11
m1 = 1.576 | 997.559 ± 0.11 | 996.552 ± 0.11 | 995.314 ± 0.11 | 993.821 ± 0.11 | 992.084 ± 0.11 | 990.16 ± 0.11 | 988.025 ± 0.11 | 985.688 ± 0.11 | 983.169 ± 0.11

Reference: the NIST ThermoML archive (doi:10.1016/j.jct.2013.12.028)
